Results taken from PMC10923520 (Science Advances, 2024).

Tested on: A549 (EGFR^WT) cells
Assay: MTT cell viability inhibition assay, A549 cells
Type: cell-based
Details: Homo sapiens, A549, 72 h, read-out: IC50 (μM) A549 (EGFR^WT)

IC50: 0.6864 ± 0.0045 µM
SMILES: C=CC(=O)Nc1cc(Nc2nccc(-c3cn(C)c4ccccc34)n2)c(OC)cc1N(C)CCN(C)C [Osimertinib, osimertinib]
